Measurements as given in BigSolDB 2.1.

O=c1c2ccccc2sc2ccccc12
Conditions	solubility (mole fraction)
in 1,4-dioxane, 292.15 K	0.00919
in 1,4-dioxane, 297.05 K	0.01
in 1,4-dioxane, 302.05 K	0.0109
in 1,4-dioxane, 305.05 K	0.0115
in 1,4-dioxane, 307.95 K	0.0121
in 1,4-dioxane, 311.15 K	0.0127
in 1,4-dioxane, 313.85 K	0.0134
in 1,4-dioxane, 316.85 K	0.0141
in 1,4-dioxane, 319.35 K	0.0146
in 1,4-dioxane, 322.55 K	0.0153
in 1,4-dioxane, 326.55 K	0.0163
in 1,4-dioxane, 331.55 K	0.0175
in 1,4-dioxane, 335.95 K	0.0186
in 2-butanone, 292.15 K	0.00309
in 2-butanone, 297.05 K	0.00398
in 2-butanone, 301.95 K	0.00441
in 2-butanone, 306.65 K	0.00519
in 2-butanone, 311.25 K	0.00604
in 2-butanone, 316.15 K	0.00696
in 2-butanone, 321.25 K	0.00805
in 2-butanone, 326.55 K	0.00947
in 2-butanone, 331.55 K	0.0111
in 2-butanone, 335.95 K	0.0124
in THF, 292.15 K	0.00867
in THF, 297.05 K	0.0101
in THF, 301.95 K	0.0114
in THF, 306.65 K	0.0129
in THF, 311.25 K	0.0147
in THF, 316.15 K	0.0167
in THF, 321.25 K	0.0189
in THF, 326.55 K	0.0213
in THF, 331.55 K	0.024
in THF, 335.95 K	0.0274
in acetone, 292.15 K	0.00191
in acetone, 297.05 K	0.00225
in acetone, 302.05 K	0.00265
in acetone, 305.05 K	0.00293
in acetone, 307.95 K	0.00317
in acetone, 311.15 K	0.00356
in acetone, 313.85 K	0.00389
in acetone, 316.85 K	0.00407
in acetone, 319.35 K	0.00456
in acetone, 322.55 K	0.00492
in acetone, 326.55 K	0.0055
in acetonitrile, 292.15 K	0.000466
in acetonitrile, 297.05 K	0.000614
in acetonitrile, 302.05 K	0.000806
in acetonitrile, 305.05 K	0.000947
in acetonitrile, 307.95 K	0.0011
in acetonitrile, 311.15 K	0.00132
in acetonitrile, 313.85 K	0.00147
in acetonitrile, 316.85 K	0.0017
in acetonitrile, 319.35 K	0.00192
in acetonitrile, 322.55 K	0.00225
in acetonitrile, 326.55 K	0.0027
in acetonitrile, 331.55 K	0.00336
in acetonitrile, 335.95 K	0.00411
in dichloromethane, 292.15 K	0.00692
in dichloromethane, 297.05 K	0.00849
in dichloromethane, 301.95 K	0.00981
in dichloromethane, 306.65 K	0.0114
in dichloromethane, 311.25 K	0.0134
in ethanol, 292.15 K	0.000194
in ethanol, 297.05 K	0.000289
in ethanol, 302.05 K	0.000428
in ethanol, 305.05 K	0.000544
in ethanol, 307.95 K	0.000657
in ethanol, 311.15 K	0.000847
in ethanol, 313.85 K	0.00103
in ethanol, 316.85 K	0.00126
in ethanol, 319.35 K	0.00153
in ethanol, 322.55 K	0.00189
in ethanol, 326.55 K	0.00247
in ethanol, 331.55 K	0.00342
in ethanol, 335.95 K	0.00452
in ethyl acetate, 292.15 K	0.00273
in ethyl acetate, 297.05 K	0.00319
in ethyl acetate, 302.05 K	0.00371
in ethyl acetate, 305.05 K	0.00405
in ethyl acetate, 307.95 K	0.00444
in ethyl acetate, 311.15 K	0.00485
in ethyl acetate, 313.85 K	0.00525
in ethyl acetate, 316.85 K	0.00565
in ethyl acetate, 319.35 K	0.00608
in ethyl acetate, 322.55 K	0.00655
in ethyl acetate, 326.55 K	0.00732
in ethyl acetate, 331.55 K	0.0083
in ethyl acetate, 335.95 K	0.00924
in isopropanol, 292.15 K	0.000395
in isopropanol, 297.05 K	0.000539
in isopropanol, 302.05 K	0.000733
in isopropanol, 305.05 K	0.000877
in isopropanol, 307.95 K	0.00106
in isopropanol, 311.15 K	0.00126
in isopropanol, 313.85 K	0.00145
in isopropanol, 316.85 K	0.00172
in isopropanol, 319.35 K	0.00198
in isopropanol, 322.55 K	0.00234
in isopropanol, 326.55 K	0.00288
in isopropanol, 331.55 K	0.00371
in isopropanol, 335.95 K	0.00461
in methanol, 292.15 K	0.000163
in methanol, 297.05 K	0.000225
in methanol, 301.95 K	0.000284
in methanol, 306.65 K	0.000316
in methanol, 311.25 K	0.0004
in methanol, 316.15 K	0.000469
in methanol, 321.25 K	0.00062
in methanol, 326.55 K	0.000788
in methanol, 331.55 K	0.000921
in methanol, 335.95 K	0.00106
in n-propanol, 292.15 K	0.000546
in n-propanol, 297.05 K	0.00061
in n-propanol, 301.95 K	0.000782
in n-propanol, 306.65 K	0.000892
in n-propanol, 311.25 K	0.00114
in n-propanol, 316.15 K	0.00134
in n-propanol, 321.25 K	0.00175
in n-propanol, 326.55 K	0.00214
in n-propanol, 331.55 K	0.00251
in n-propanol, 335.95 K	0.00317
in toluene, 292.15 K	0.00373
in toluene, 297.05 K	0.00456
in toluene, 302.05 K	0.00554
in toluene, 305.05 K	0.00624
in toluene, 307.95 K	0.0069
in toluene, 311.15 K	0.00782
in toluene, 313.85 K	0.00858
in toluene, 316.85 K	0.0096
in toluene, 319.35 K	0.0103
in toluene, 322.55 K	0.0116
in toluene, 326.55 K	0.0134
in toluene, 331.55 K	0.0158
in toluene, 335.95 K	0.0181
